Measurements as given in publication PMC9785946, “Bioorthogonal Chemistry Approach for the Theranostics of GRPR-Expressing Cancers” (Pharmaceutics, 2022).
Like-named read-outs stand apart in the source and are kept apart here.

How the values were obtained:
[1] = system: PC3 xenografts-bearing mice; experiment: Biodistribution of 111In-radioconjugates/radiocomplex in PC3 xenografts-bearing mice; type: in vivo, Balb/c-male nude mice
From the text: (§1) Blood samples were taken by cardiac puncture at sacrifice.

PC3 cells = experiment: Cellular uptake, internalization and blocking assays in PC3 cells; type: cell-based, human; conditions: 37 °C; for Maximum cellular uptake: 5 min to 4 h
Method: The time-dependent accumulation of ^111In-conjugates in PC3 cells was evaluated according to a previously described procedure. Briefly, PC3 cells were incubated at 37 °C for 5 min to 4 h with about 7.4 kBq of the tested radioconjugates. To assess the surface binding, the cells were treated twice with glycine buffer (50 mM glycine-HCl/100 mM NaCl, pH 2.8). Then, the cells were lysed with NaOH 1 M (internalized radioconjugate). The activity in both cell surface-bound and internalized fractions was measured in a γ-counter and reported as a percentage of the total applied radioactivity. The total cellular uptake was calculated by the addition of the activities recovered from the surface binding and internalized fractions. Assays for each time point were performed in quadruplicate, and data were presented as average ± SD of typically three independent experiments.
To assess the specific GRPR-mediated cellular uptake and internalization of radioconjugates (receptor blocking studies), a similar study was performed in which cells were incubated with the [^111In]In-DOTA-Tz-TCO-PEG4-AR for 1, 2 and 4 h, with or without the GRPR agonist Tyr4-Bombesin (0.25 µg/0.5 mL/well).

[2] = Method: The octanol–water partition coefficients (Po/w) of the radioconjugates (20 µL, typically 1 to 5 MBq) were determined by the “shake-flask” method, as previously described.
[3] = Biodistribution of 111In-radioconjugates/radiocomplex in PC3 xenografts-bearing mice; type: in vivo, Balb/c-male nude mice; conditions: male, Balb/c nude, mouse, iv, total radioactivity, 1 h p.i.
From the text: as §1

[4] = 15 min p.i., listed as [111In]In-DOTA-Tz
[5] = 1 h p.i., listed as [111In]In-DOTA-Tz
[6] = 1 h p.i., blocking (excess of agonist)

For `O=C([O-])CN1CCN(CC(=O)[O-])CCN(CC(=O)NCc2ccc(-c3nncnn3)cc2)CCN(CC(=O)[O-])CC1.[111In+3]` [[^111In]In-DOTA-Tz], the Blood uptake ([1]; 15 min p.i.) was 2. 7 % I.D./g, the Bone uptake ([1]; 15 min p.i.) was 0. 8 % I.D./g and the Excretion ([1]; 15 min p.i.) was 61. % I.D. For the same molecule, the Heart uptake ([1]; 15 min p.i.) was 0. 9 % I.D./g, the Intestine uptake ([1]; 15 min p.i.) was 0. 4 % I.D./g and the Kidneys uptake ([1]; 15 min p.i.) was 4. 4 % I.D./g. For the same molecule, the Liver uptake ([1]; 15 min p.i.) was 0. 9 % I.D./g, the Lungs uptake ([1]; 15 min p.i.) was 1. 4 % I.D./g and the Muscle uptake ([1]; 15 min p.i.) was 0. 8 % I.D./g. For the same molecule, the Pancreas uptake ([1]; 15 min p.i.) was 0.42 ± 0.02 % I.D./g, the Spleen uptake ([1]; 15 min p.i.) was 0. 45 % I.D./g and the Stomach uptake ([1]; 15 min p.i.) was 0. 4 % I.D./g. The Tumor uptake ([1]; 15 min p.i.) was 2.46 ± 0.6 % I.D./g, the Pancreas uptake [1, 4] was 0. 42 % I.D./g and the Tumor uptake [1, 4] was 2. 46 % I.D./g. The Blood uptake ([1]; 1 h p.i.) was 0. 4 % I.D./g, the Bone uptake ([1]; 1 h p.i.) was 0. 2 % I.D./g and the Excretion ([1]; 1 h p.i.) was 88 % I.D. For the same molecule, the Heart uptake ([1]; 1 h p.i.) was 0. 17 % I.D./g, the Intestine uptake ([1]; 1 h p.i.) was 0. 29 % I.D./g and the Kidneys uptake ([1]; 1 h p.i.) was 2. 1 % I.D./g. The Liver uptake ([1]; 1 h p.i.) was 0. 4 % I.D./g, the Lungs uptake ([1]; 1 h p.i.) was 0. 38 % I.D./g and the Muscle uptake ([1]; 1 h p.i.) was 0. 1 % I.D./g. The Pancreas uptake ([1]; 1 h p.i.) was 0.09 ± 0.06 % I.D./g, the Spleen uptake ([1]; 1 h p.i.) was 0. 14 % I.D./g and the Stomach uptake ([1]; 1 h p.i.) was 0. 17 % I.D./g. The Tumor uptake ([1]; 1 h p.i.) was 0.5 ± 0.2 % I.D./g, the Pancreas uptake [1, 5] was 0. 09 % I.D./g and the Tumor uptake [1, 5] was 0. 5 % I.D./g. For the same molecule, the Blood uptake ([1]; 24 h p.i.) was 0. 03 % I.D./g, the Bone uptake ([1]; 24 h p.i.) was 0. 04 % I.D./g and the Excretion ([1]; 24 h p.i.) was 97. % I.D. The Heart uptake ([1]; 24 h p.i.) was 0. 02 % I.D./g, the Intestine uptake ([1]; 24 h p.i.) was 0. 09 % I.D./g and the Kidneys uptake ([1]; 24 h p.i.) was 0. 87 % I.D./g. The Liver uptake ([1]; 24 h p.i.) was 0. 12 % I.D./g, the Lungs uptake ([1]; 24 h p.i.) was 0. 07 % I.D./g and the Muscle uptake ([1]; 24 h p.i.) was 0. 021 % I.D./g. For the same molecule, the Pancreas uptake ([1]; 24 h p.i.) was 0. 03 % I.D./g, the Spleen uptake ([1]; 24 h p.i.) was 0. 08 % I.D./g and the Stomach uptake ([1]; 24 h p.i.) was 0. 03 % I.D./g. For the same molecule, the Tumor uptake ([1]; 24 h p.i.) was 0. 13 % I.D./g.

For `CC(C)C[C@H](NC(=O)C[C@H](O)[C@H](CC(C)C)NC(=O)[C@H](Cc1c[nH]cn1)NC(=O)CNC(=O)[C@@H](NC(=O)[C@H](C)NC(=O)[C@H](Cc1c[nH]c2ccccc12)NC(=O)[C@H](CCC(N)=O)NC(=O)[C@@H](Cc1ccccc1)NC(=O)CN1CCC(NC(=O)OC2CCCc3c(cnnc3-c3ccc(CNC(=O)CCC(C(=O)O)N4CCN(CC(=O)O)CCN(CC(=O)O)CCN(CC(=O)O)CC4)cc3)CC2)CC1)C(C)C)C(N)=O` (stereo partly drawn) [[^111In]In-DOTAGA-Tz-TCO-Pip-AR, metal not drawn], the “Distribution of cell-associated activity (surface-bound vs internalized)” value (PC3 cells) was “almost all cell-associated activity corresponded to the membrane-bound fraction”, the Maximum cellular uptake (PC3 cells) was “around 10 % of the total activity applied per million cells” and the logP [2] was -0.9.

In the case of `CC(C)C[C@H](NC(=O)C[C@H](O)[C@H](CC(C)C)NC(=O)[C@H](Cc1c[nH]cn1)NC(=O)CNC(=O)[C@@H](NC(=O)[C@H](C)NC(=O)[C@H](Cc1c[nH]c2ccccc12)NC(=O)[C@H](CCC(N)=O)NC(=O)[C@@H](Cc1ccccc1)NC(=O)CN1CCC(NC(=O)OC2CCCc3c(cnnc3-c3ccc(CNC(=O)CN4CCN(CC(=O)O)CCN(CC(=O)O)CCN(CC(=O)O)CC4)cc3)CC2)CC1)C(C)C)C(N)=O` (stereo partly drawn) [[^111In]In-DOTA-Tz-TCO-Pip-AR, metal not drawn], the “Distribution of cell-associated activity (surface-bound vs internalized)” value (PC3 cells) is reported as “almost all cell-associated activity corresponded to the membrane-bound fraction”, the Maximum cellular uptake (PC3 cells) is reported as “around 10 % of the total activity applied per million cells” and the Blood uptake ([1]; 1 h p.i.) is reported as 2. 63 % I.D./g. For the same molecule, the Bone uptake ([1]; 1 h p.i.) was 1. 2 % I.D./g, the Excretion ([1]; 1 h p.i.) was 63. % I.D and the Heart uptake ([1]; 1 h p.i.) was 1. 06 % I.D./g. For the same molecule, the Intestine uptake ([1]; 1 h p.i.) was 0. 54 % I.D./g, the Kidneys uptake ([1]; 1 h p.i.) was 9. 04 % I.D./g and the Liver uptake ([1]; 1 h p.i.) was 3. 97 % I.D./g. The Lungs uptake ([1]; 1 h p.i.) was 1. 74 % I.D./g, the Muscle uptake ([1]; 1 h p.i.) was 0. 64 % I.D./g and the Pancreas uptake ([1]; 1 h p.i.) was 3. 24 % I.D./g. The Spleen uptake ([1]; 1 h p.i.) was 0. 98 % I.D./g, the Stomach uptake ([1]; 1 h p.i.) was 0. 48 % I.D./g and the Tumor uptake ([1]; 1 h p.i.) was 2. 79 % I.D./g. The Blood uptake [1, 6] was 3. 11 % I.D./g, the Bone uptake [1, 6] was 0. 97 % I.D./g and the Excretion [1, 6] was 60. % I.D. For the same molecule, the Heart uptake [1, 6] was 0. 6 % I.D./g, the Intestine uptake [1, 6] was 0. 4 % I.D./g and the Kidneys uptake [1, 6] was 7. 18 % I.D./g. For the same molecule, the Liver uptake [1, 6] was 3. 28 % I.D./g, the Lungs uptake [1, 6] was 1. 44 % I.D./g and the Muscle uptake [1, 6] was 0. 63 % I.D./g. The Pancreas uptake [1, 6] was 1. 67 % I.D./g, the Spleen uptake [1, 6] was 0. 74 % I.D./g and the Stomach uptake [1, 6] was 0. 34 % I.D./g. For the same molecule, the Tumor uptake [1, 6] was 1. 38 % I.D./g, the Blood uptake ([1]; 2 h p.i.) was 0. 16 % I.D./g and the Bone uptake ([1]; 2 h p.i.) was 0. 13 % I.D./g. For the same molecule, the Excretion ([1]; 2 h p.i.) was 91. % I.D, the Heart uptake ([1]; 2 h p.i.) was 0. 08 % I.D./g and the Intestine uptake ([1]; 2 h p.i.) was 0. 09 % I.D./g. For the same molecule, the Kidneys uptake ([1]; 2 h p.i.) was 3. 09 % I.D./g, the Liver uptake ([1]; 2 h p.i.) was 1. 02 % I.D./g and the Lungs uptake ([1]; 2 h p.i.) was 0. 18 % I.D./g. For the same molecule, the Muscle uptake ([1]; 2 h p.i.) was 0. 05 % I.D./g, the Pancreas uptake ([1]; 2 h p.i.) was 0. 28 % I.D./g and the Spleen uptake ([1]; 2 h p.i.) was 0. 28 % I.D./g. For the same molecule, the Stomach uptake ([1]; 2 h p.i.) was 0. 05 % I.D./g, the Tumor uptake ([1]; 2 h p.i.) was 1. 13 % I.D./g and the tissue uptake at 1 h ([3]; pancreas, read-out: Pancreas uptake) was 2.8 ± 0.5 %ID/g. It also gave a tissue uptake at 1 h ([3]; tumor (PC3 xenograft), read-out: Tumor uptake) of 3.2 ± 0.1 %ID/g and a logP [2] of -1.28 ± 0.01.
